From PubChem BioAssay (NCI)
Where “and” joins values, the source holds several entries; their conditions need not be identical. Identical values can stand only once.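 Protocol summary: plate cells (96-well), add compound at 5 concentrations, incubate 48 h, interpolate endpoints linearly. GI50: concentration for 50% inhibition of growth. TGI: concentration producing complete growth inhibition.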

Assays:
Test in all cases: inhibition of tumour cell growth, NCI panel, 48 h
[1] = system: M19-MEL melanoma
[2] = system: KM20L2 colon
[3] = system: DMS 273 small cell lung
[4] = system: DLD-1 colon
[5] = system: RXF-631 renal
[6] = system: XF 498 CNS
[7] = system: MCF7 breast
[8] = system: MDA-MB-435
[9] = system: MDA-N

Structure (SMILES)	TGI [1]	TGI [2]	TGI [3]	TGI [7]	TGI [8]	GI50 [7]	GI50 [8]	other results
[Cl-].[Dy+3].[O-]/N=C(\c1ccccc1)c1ccccn1.[O-]/N=C(\c1ccccc1)c1ccccn1.[O-]/N=C(\c1ccccc1)c1ccccn1	94.6 µM	> 100 µM	> 100 µM					GI50 [1]: 31.3 µM; GI50 [2]: 42 µM; GI50 [3]: 29.8 µM; GI50 [4]: 35.9 µM; TGI [4]: > 100 µM
O=C1C2c3[nH]c4ccccc4c3C3CCCCCCC3C2C(=O)N1c1ccccc1 (stereo not drawn)	37.2 µM		29.8 µM					TGI [5]: 17.6 µM; TGI [6]: 10.7 µM
CC(C)(C)C1C=C(Sc2ccccc2)C(=O)O1 (stereo not drawn)	> 100 µM	> 100 µM	> 100 µM					TGI [4]: > 100 µM
COC(=O)/C(=N/NC(=O)C[N+](C)(C)C)C(C(=O)OC)C(=O)C(=O)Nc1ccc(F)cc1 (stereo not drawn)	> 100 µM	> 100 µM	> 100 µM					TGI [5]: > 100 µM; TGI [4]: > 100 µM
COc1ccc(NC2=CC(=O)C(=O)c3ccccc32)nn1				2.14 µM	1.32 µM			TGI [9]: 1.16 µM
CC1=CC(=Nc2ccc(N(CCCl)CCCl)cc2)C=C(C)C1=O				3.98 µM	4.55 µM	413 nM	1670 nM	
COC(=O)c1c/c(=N\NC(=O)CC(=O)Nc2ccccc2OC)c2ccccc2o1	> 100 µM	> 100 µM	> 100 µM					TGI [4]: > 100 µM
COc1ccc(-c2cc(=O)c3c(OC)c(OC)c(OC)cc3o2)cc1				> 100 µM	> 100 µM			TGI [9]: > 100 µM
COC12C=C(C)C(CC1)CC2C(=O)O (stereo not drawn)	> 100 µM	> 100 µM	> 100 µM					TGI [6]: > 100 µM; TGI [4]: > 100 µM
Cc1cc2c(cc1C)[n+](=O)c(C(=O)C/C(=N/NC(=O)CC#N)C(=O)Nc1ccccc1C(F)(F)F)c(C)n2[O-]	> 100 µM	> 100 µM	> 100 µM					TGI [5]: 33.3 µM; TGI [6]: > 100 µM
O=C1c2cc(Cl)ccc2S(=O)(=O)c2c(NCCCNCCO)nc3ccccc3c21				3.71 µM	3.13 µM	1520 nM	1500 nM	
C[C@@H]1OC(O)[C@@H](F)[C@H](O)[C@@H]1O (stereo partly drawn)				> 100 µM	> 100 µM	> 100000 nM	> 100000 nM	
CC[C@@H]1C(=O)N(C)c2cnc(Nc3ccc(C(=O)NC4CCN(C)CC4)cc3OC)nc2N1C1CCCC1				> 4.96 µM and 5.55 µM		3.31 nM and < 10 nM		
CCC(C)c1c(Cl)nc(Cl)nc1Cl (stereo not drawn)				22 µM	9.1 µM			TGI [9]: 23.8 µM
Oc1c(CN2CCC(N3CCCCC3)CC2)cc(Cc2cc(CN3CCC(N4CCCCC4)CC3)c(O)c3ncccc23)c2cccnc12				10.3 µM	6.41 µM	865 nM	1770 nM	
Cn1c(=O)c2[nH]c(SCc3ccccn3)nc2n(C)c1=S				> 100 µM	> 100 µM			TGI [9]: > 100 µM
COc1ccc(/C(COc2c(-c3ccccc3)oc3ccccc3c2=O)=N\O)cc1				29.5 µM		10800 nM		
CN1CCN(C(=O)OCc2nc3c(N4CCOCC4)nc(Cl)nc3n2C)CC1					2.44 µM		1160 nM	
Cn1c2ccccc2c2c(-c3ccccc3)[n+]3ccncc3nc21				> 100 µM	> 100 µM	63600 nM	94300 nM	
